Measured values taken from patent US20220017516A1, “LOX INHIBITORS” (THE INSTITUTE OF CANCER RESEARCH: ROYAL CANCER HOSPITAL, priority 2018, published 2022).
Read-outs that look alike come from different tables or passages of the source.

How the values were obtained:
LOX = molecular target: T1, LOX (Sus scrofa, UniProt P45845); experiment: LOX isoform activity assay (ROS Glo), LOX; format: biochemical, pig; settings: 1 h incubation with enzyme
T1 construct: LOX was extracted from pig skin by previously described methods; from tissue; host or cells: pig skin
T1 sequence (P45845 1-249): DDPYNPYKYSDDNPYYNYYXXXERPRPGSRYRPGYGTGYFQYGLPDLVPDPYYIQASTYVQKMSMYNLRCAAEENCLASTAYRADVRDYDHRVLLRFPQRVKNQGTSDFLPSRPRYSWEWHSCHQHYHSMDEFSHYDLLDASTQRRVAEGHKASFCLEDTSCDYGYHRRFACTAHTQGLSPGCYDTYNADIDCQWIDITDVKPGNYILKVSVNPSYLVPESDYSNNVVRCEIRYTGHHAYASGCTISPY
Description: (§1) LOX was extracted from pig skin by previously described methods (Shackleton and Hulmes, 1990). LOXL2 and LOXL3 were obtained from R&D Systems/Bio-techne. The Promega ROS Glo assay kit (G8821) was used to assess enzyme activity. Overall, test compound was added to either 384 well assay plates (Greiner) using a Labcyte Echo™ Acoustic Handler or to 96 well plates for a final assay concentration of 100, 30, 10, 3, 1, 0.3, 0.1, 0.03, 0.01 and 0.003 μM final assay concentration. Enzymes were diluted according to specific pre-determined activity in assay buffer (100 mM CHES, pH 9, 0.05% (w/v) pluronic F-127, 0.5% (w/v) BSA, 1 mM MgCl2, 1 M urea, 100 mM NaCl) and added to the plate. For LOXL2, the mixture was incubated for 20 min, 1 h or 20 h; for LOX and LOXL3, incubation time was 1 h. Cadaverine and H2O2 substrate were then added to each well (final assay concentration 19.56 mM and 25 μM respectively) and the plates were incubated for 1.5 h (for LOX) or 1 h (for LOXL2 and LOXL3) at room temperature. Finally, luciferin detection reagent was added and plates were incubated for 20 min at room temperature, protected from light. Luminescence was measured using a BMG LABTECH PHERAstar FS reader and resulting IC50 values were calculated using GraphPad Prism software.

LOXL2 = molecular target: T2, LOXL2 (Homo sapiens, UniProt Q9Y4K0); experiment: LOX isoform activity assay (ROS Glo), LOXL2; format: biochemical
T2 construct: purchased R&D Systems/Bio-techne
T2 sequence (Q9Y4K0 26-774): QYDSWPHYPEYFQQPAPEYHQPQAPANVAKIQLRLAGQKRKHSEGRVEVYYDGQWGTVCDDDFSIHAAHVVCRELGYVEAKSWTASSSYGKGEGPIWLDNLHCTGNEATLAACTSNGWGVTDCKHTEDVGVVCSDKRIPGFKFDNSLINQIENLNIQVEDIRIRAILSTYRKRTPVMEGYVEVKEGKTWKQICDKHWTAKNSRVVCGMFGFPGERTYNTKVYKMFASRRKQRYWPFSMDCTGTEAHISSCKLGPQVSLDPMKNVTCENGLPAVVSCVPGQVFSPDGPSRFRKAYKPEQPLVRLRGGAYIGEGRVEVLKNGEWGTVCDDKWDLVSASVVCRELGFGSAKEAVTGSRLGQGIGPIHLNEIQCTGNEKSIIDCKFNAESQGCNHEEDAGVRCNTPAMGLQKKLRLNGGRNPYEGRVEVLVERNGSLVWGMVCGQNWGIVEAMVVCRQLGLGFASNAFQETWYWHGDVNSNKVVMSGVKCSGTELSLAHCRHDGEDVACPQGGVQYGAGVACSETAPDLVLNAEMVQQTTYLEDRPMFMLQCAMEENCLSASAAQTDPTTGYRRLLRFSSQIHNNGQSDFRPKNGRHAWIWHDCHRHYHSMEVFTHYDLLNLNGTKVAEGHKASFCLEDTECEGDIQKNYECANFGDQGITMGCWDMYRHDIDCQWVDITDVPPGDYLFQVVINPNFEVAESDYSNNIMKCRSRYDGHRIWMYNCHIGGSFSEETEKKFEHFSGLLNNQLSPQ
Description: as §1
In another setting, LOXL2 enzyme was diluted according to specific pre-determined activity in assay buffer (100 mM CHES, pH 9, 0.05% (w/v) pluronic F-127, 0.5% (w/v) BSA, 1 mM MgCl2, 1 M urea, 100 mM NaCl). Overall, 0.5 μl test compound was added to 40 μl assay buffer+LOXL2 at 100, 30, 10, 3, 1, 0.3, 0.1, 0.03, 0.01 and 0.003 μM (final concentration) in a 96-well white polystyrene, flat bottom plates (Fisher) and incubated for the indicated time at room temperature. 10 μl of assay buffer containing 97.8 mM cadaverine and 125 μM H2O2 substrate (final assay concentration 19.56 mM and 25 μM respectively) were added to each well and plates were incubated for 1 h at room temperature. Finally, 50 μl per well luciferin detection reagent was added and plates were incubated for 20 min at room temperature, protected from light. Luminescence was measured with an integration time of 500 ms per well using a SpectaMax M5 plate reader and resulting IC50 values were calculated using GraphPad Prism software.

[1] = molecular target: T3, monoamine oxidase A (MAO-A) (Homo sapiens, UniProt P21397); experiment: Amine oxidase activity assay (MAO-Glo), MAO-A; format: biochemical
T3 construct: purchased Promega V1452
T3 sequence (P21397 1-527): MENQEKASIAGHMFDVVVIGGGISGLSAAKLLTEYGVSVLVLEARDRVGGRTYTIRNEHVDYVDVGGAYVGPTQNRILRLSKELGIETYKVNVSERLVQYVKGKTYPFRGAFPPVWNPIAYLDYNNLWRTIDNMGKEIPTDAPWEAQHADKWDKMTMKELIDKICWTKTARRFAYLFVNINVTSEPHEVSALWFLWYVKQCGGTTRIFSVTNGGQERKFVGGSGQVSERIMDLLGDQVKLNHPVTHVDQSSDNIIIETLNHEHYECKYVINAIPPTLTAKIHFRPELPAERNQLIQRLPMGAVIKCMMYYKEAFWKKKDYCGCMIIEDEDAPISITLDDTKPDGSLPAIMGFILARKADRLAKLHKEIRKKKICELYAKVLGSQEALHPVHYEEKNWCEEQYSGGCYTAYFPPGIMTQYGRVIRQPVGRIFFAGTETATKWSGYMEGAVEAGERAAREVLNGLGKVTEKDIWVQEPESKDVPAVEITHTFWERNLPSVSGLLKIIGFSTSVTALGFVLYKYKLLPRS
Description: (§2) The Promega MAO-Glo assay kit (V1402) was used to assess monoamine oxidase A (MAO-A) and monoamine oxidase B (MAO-B) activity. MAO substrate was prepared at 80 μM with the specific MAO-A/B reaction buffer. Overall, 0.5 μl test compound was added to 25 μl MAO substrate at 100, 30, 10, 3, 1, 0.3, 0.1, 0.03, 0.01 and 0.003 μM (final concentration) in a 96-well white, flat bottom plate. Overall, 25 μl of 1:520 dilution of MAO-A enzyme (Promega, V1452) or 25 μl of 1:52 dilution of MAO-B enzyme (Sigma, M7441) in specific MAO-A/B reaction buffer was added to each well (enzyme prepared at 2×final concentration) and plates were incubated for 1 h at room temperature. Finally, 50 μl per well luciferin detection reagent was added and plates were incubated for 20 min at room temperature, protected from light. Luminescence was measured with an integration time of 500 ms per well using a SpectaMax M5 plate reader and resulting IC50 values were calculated using GraphPad Prism software.
(§3) In another setting, the DAO and MAO assays were performed in 384-well plates (Greiner) and test compound was added using a Labcyte Echo™ Acoustic Handler for the same final concentrations as in the 96-well setting. Luminescence was measured with BMG LABTECH PHERAstar FS plate reader.

[2] = molecular target: T4, monoamine oxidase B (MAO-B) (Homo sapiens, UniProt P27338); experiment: Amine oxidase activity assay (MAO-Glo), MAO-B; format: biochemical
T4 construct: purchased Sigma M7441
T4 sequence (P27338 1-520): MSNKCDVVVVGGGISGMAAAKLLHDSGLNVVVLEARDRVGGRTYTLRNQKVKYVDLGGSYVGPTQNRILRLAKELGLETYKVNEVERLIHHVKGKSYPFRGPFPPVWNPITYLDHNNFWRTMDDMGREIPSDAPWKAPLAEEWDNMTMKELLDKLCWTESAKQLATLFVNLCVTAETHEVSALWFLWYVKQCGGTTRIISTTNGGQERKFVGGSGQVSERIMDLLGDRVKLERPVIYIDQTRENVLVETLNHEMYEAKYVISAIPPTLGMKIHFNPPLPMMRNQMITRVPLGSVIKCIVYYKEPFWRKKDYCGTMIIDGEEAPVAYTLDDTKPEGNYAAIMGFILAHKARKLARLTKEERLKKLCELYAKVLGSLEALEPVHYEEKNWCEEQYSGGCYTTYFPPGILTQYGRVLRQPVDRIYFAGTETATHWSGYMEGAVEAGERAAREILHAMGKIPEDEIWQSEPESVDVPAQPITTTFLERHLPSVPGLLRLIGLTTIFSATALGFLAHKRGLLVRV
Description: as §2, §3

[3] = 1 hr incubation with enzyme; read-out: LOXL2 IC50 b) 1 hr
[4] = 20 min incubation with enzyme; read-out: LOXL2 IC50 a) 20 min
[5] = 20 hr incubation with enzyme; read-out: LOXL2 IC50 c) 20 hr

| IC50 (LOXL2; [5]) [µM] | Compound | IC50 (LOX) [µM] | further results |
| --- | --- | --- | --- |
|  | CCOc1ccc(N2C[C@H]3CN(C(=O)C(C)S(=O)(=O)CCN)C[C@@H]2C(C)(C)C3)cc1 (mixture of isomers) [Example 39, 2-((2-aminoethyl)sulfonyl)-1-((1S,5S)-6-(4-ethoxyphenyl)-9,9-dimethyl-3,6-diazabicyclo[3.2.2]nonan-3-yl)propan-1-one] | 10 | IC50 (LOXL2; [3]): 0.41 µM |
|  | NCCS(=O)(=O)CCN1CCCN(c2ccc(N3CCS(=O)(=O)CC3)cc2)CC1 [Example 3, 4-(4-(4-(2-((2-aminoethyl)sulfonyl)ethyl)-1,4-diazepan-1-yl)phenyl) thiomorpholine-1,1-dioxide] |  | IC50 (LOXL2; [4]): 8.1 µM; IC50 [1]: > 100 µM; IC50 [2]: > 100 µM |
| 0.48 | CC1(C)C[C@@H]2CN(CCS(=O)(=O)CCN)C[C@H]1N(c1ccc(N3CCS(=O)(=O)CC3)cc1)C2 [Example 5, 4-(4-((1R,5S)-3-(2-((2-aminoethyl)sulfonyl)ethyl)-9,9-dimethyl-3,6-diazabicyclo[3.2.2]nonan-6-yl)phenyl)thiomorpholine 1,1-dioxide] |  |  |
| 2.5 | CCOc1ccc(N2C[C@H]3CN(CCCS(=O)(=O)CCN)C[C@@H]2C(C)(C)C3)cc1 [Example 6, 2-((3-((1R,5S)-6-(4-ethoxyphenyl)-9,9-dimethyl-3,6-diazabicyclo[3.2.2]nonan-3-yl)propyl)sulfonyl)ethan-1-amine] | 58 |  |
| 0.94 | CC1(C)C[C@@H]2CN(C(=O)CS(=O)(=O)CCN)C[C@H]1N(c1ccc(N3CCS(=O)(=O)CC3)cc1)C2 [Example 10, 2-((2-aminoethyl)-sulfonyl)-1-((1S,5S)-6-(4-(1,1-dioxido-thiomorpholino)-phenyl)-9,9-dimethyl-3,6-diaza-bicyclo[3.2.2]nonan-3-yl)ethan-1-one] |  |  |
|  | CC1(C)C[C@@H]2CN(C(=O)C(F)S(=O)(=O)CCN)C[C@H]1N(c1ccc(N3CCS(=O)(=O)CC3)cc1)C2 (stereo partly drawn) [Example 17, 2-((2-aminoethyl)-sulfonyl)-1-((1S,5S)-6-(4-(1,1-dioxido-thiomorpholino)-phenyl)-9,9-dimethyl-3,6-diaza-bicyclo[3.2.2]nonan-3-yl)-2-fluoroethan-1-one] |  | IC50 (LOXL2; [3]): 0.11 µM |
|  | CCOc1ccc(N2C[C@H]3CN(C(=O)c4ccc(S(=O)(=O)CCN)cc4)C[C@@H]2C(C)(C)C3)cc1 [Example 31, (4-((2-aminoethyl)sulfonyl)phenyl)((1S,5S)-6-(4-ethoxyphenyl)-9,9-dimethyl-3,6-diazabicyclo[3.2.2]nonan-3-yl)methanone] | 96 | IC50 (LOXL2; [4]): 16 µM |
| 6.7 | CC1(C)C[C@@H]2CN(C(=O)N3CCS(=O)(=O)CC3)C[C@H]1N(c1ccc(OCCCS(=O)(=O)CCN)cc1)C2 [Example 35, ((1S,5S)-6-(4-(3-((2-aminoethyl)sulfonyl)-propoxy)phenyl)-9,9-dimethyl-3,6-diaza-bicyclo[3.2.2]nonan-3-yl)(1,1-dioxido-thiomorpholino) methanone] |  |  |

| Compound | IC50 (LOXL2; [5]) [µM] | IC50 (LOX) [µM] | further results |
| --- | --- | --- | --- |
| CCOc1ccc(N2C[C@@H]3CC[C@H]2CN(C(=O)CS(=O)(=O)CCN)C3)cc1 [Example 9, 2-((2-aminoethyl)-sulfonyl)-1-((1S,5S)-6-(4-ethoxyphenyl)-3,6-diazabicyclo-[3.2.2]nonan-3-yl)-ethan-1-one] | 0.34 | > 100 |  |
| CC1(C)C[C@@H]2CN(C(=O)NCCO)C[C@H]1N(c1ccc(OCCCS(=O)(=O)CCN)cc1)C2 [Example 34, (1S,5S)-6-(4-(3-((2-aminoethyl)sulfonyl)propoxy)phenyl)-N-(2-hydroxyethyl)-9,9-dimethyl-3,6-diazabicyclo[3.2.2]nonane-3-carboxamide] | 9.3 |  |  |
| CCNC(=O)N1C[C@@H]2CN(c3ccc(OCCCS(=O)(=O)CCN)cc3)[C@H](C1)C(C)(C)C2 [Example 36, (1S,5S)-6-(4-(3-((2-aminoethyl)sulfonyl)propoxy)phenyl)-N-ethyl-9,9-dimethyl-3,6-diazabicyclo[3.2.2]nonane-3-carboxamide] | 5.1 | 4.5 |  |
